Consider 39 compounds from patent US20230023009A1, “HETEROCYCLIC COMPOUNDS AND METHODS OF USE THEREOF” (SPARCBIO LLC, priority 2020, published 2023).

The assay addresses KRAS G12C protein (Homo sapiens, UniProt P01116, G12C). The experiment in a line: Nucleotide exchange assay (Method III, KRAS G12C/Raf-RBD TR-FRET). It is filed as biochemical. The following applies: SOS1-mediated exchange of GDP for GTP, 18 hr compound incubation. The method, then:
Method III. Inhibition of SOS1-mediated exchange of GDP for GTP on the KRAS G12C protein was measured in a biochemical assay that monitors association of KRAS G12C protein with the Ras-binding domain of Raf (Raf-RBD), where the association is coupled to exchange of GDP to GTP on the KRAS G12C protein. The assay was performed at WuXi AppTec (Shanghai, China). Compounds were serially diluted in 3-fold dilutions to 11 concentrations and spotted into the wells of an assay plate in a total volume of 150 nL DMSO per well. A 2× enzyme mix was prepared by diluting GDP-bound, His-tagged KRAS G12C to 25 nM in assay buffer. 10 μL/well of 2× enzyme mix was added to all wells, and the plate was sealed and incubated overnight (18 hr) at 23° C. 4×SOS1/GDP and 4×SOS1/GTP were prepared in assay buffer. 5 μL/well of 4×SOS1/GDP mix was added to negative control wells, 5 μL/well of 4×SOS1/GTP mix was added to the remaining wells, and the plate was further incubated at 23° C. for 1 hr. Finally, FLAG-tagged Raf-RBD is added to the reaction mixture along with a pair of FRET donor- and acceptor-conjugated antibodies specific for the FLAG-tagged Raf-RBD and His-tagged KRAS G12C proteins. A 4×Raf-RBD/Tb-anti-FLAG/D2-anti-His mix was prepared in assay buffer, and 5 μL/well of the mix was added to all wells, followed by incubation at room temperature for 2 hr. The TR-FRET signals, which increase with association of KRAS G12C and Raf-RBD, were measured on a Perkin Elmer Envision 2104 plate reader, and data were analyzed by non-linear regression to obtain IC50 values for inhibition by compounds. Table 2 includes results of the assay of Method III. ‘+++’ indicates IC50 values≤300 nM, ‘++’ indicates IC50 values between 300 nM-3 μM, and ‘+’ indicates IC50 values≥3 μM.
On the technique in general: TR-FRET usually uses a lanthanide donor and a delayed reading to cut background.

Sequence of KRAS G12C protein (P01116 1-188 isoform P01116-2 G12C): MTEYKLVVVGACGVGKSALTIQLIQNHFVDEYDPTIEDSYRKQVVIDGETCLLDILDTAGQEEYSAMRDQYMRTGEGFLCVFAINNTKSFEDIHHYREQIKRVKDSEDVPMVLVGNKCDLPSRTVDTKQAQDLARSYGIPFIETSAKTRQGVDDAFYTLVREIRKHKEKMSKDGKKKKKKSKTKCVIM

`C=CC(=O)N1CCN(c2nc(OC[C@@H]3CCCN3C)nc3c2COC(c2cccc4cccc(Cl)c24)C3)C[C@@H]1CC#N` (single isomer, unassigned) [38 (Isomer A)] yielded an IC50 of 0.3 to 3 µM.

As for `C=C(F)C(=O)N1CCN(c2nc(OC[C@@H]3CCCN3C)nc3c2COC(c2cccc4cccc(Cl)c24)C3)C[C@H]1C` (single isomer, unassigned) [42 (Isomer A)], the 50% inhibitory concentration (IC50) was ≥ 3 µM.

For the compound `C=C(F)C(=O)N1CCN(c2nc(OC[C@@H]3CCCN3C)nc3c2COC(c2cccc4cccc(Cl)c24)C3)C[C@H]1C` (single isomer, unassigned) [42 (Isomer B)], the half-inhibitory concentration (IC50) is ≥ 3 µM.

On to `C=C(F)C(=O)N1CCN(c2nc(OC[C@@H]3CCCN3C)nc3c2COC(c2cccc4cccc(Cl)c24)C3)[C@@H](C)C1` (single isomer, unassigned) [44 (Isomer A)], for which the IC50 is ≥ 3 µM. Turning to `C=C(F)C(=O)N1CCN(c2nc(OC[C@@H]3CCCN3C)nc3c2COC(c2cccc4cccc(Cl)c24)C3)[C@@H](C)C1` (single isomer, unassigned) [44 (Isomer B)], the IC50 lay within 0.3 to 3 µM.

As for `C=C(F)C(=O)N1CCN(c2nc(OC[C@@H]3CCCN3C)nc3c2COC(c2c(C)ccc4[nH]ncc24)C3)C[C@@H]1CC#N` (single isomer, unassigned) [52 (Isomer A)], the IC50 was in the range of 0.3 to 3 µM.

Compound `C=C(F)C(=O)N1CCN(c2nc(OC[C@@H]3CCCN3C)nc3c2OCC(c2cccc4cccc(Cl)c24)O3)C[C@@H]1CC#N` (single isomer, unassigned) [64 (Isomer A)] yielded an IC50 of 0.3 to 3 µM. In the case of `C=C(F)C(=O)N1CCN(c2nc(OC[C@@H]3CCCN3C)nc3c2OCC(c2cccc4cccc(Cl)c24)O3)C[C@@H]1CC#N` (single isomer, unassigned) [64 (Isomer B)], the IC50 lay in the range of 0.3 to 3 µM. Consider `C=CC(=O)N1CCN(c2nc(OC[C@@H]3CCCN3C)nc3c2OCC(c2cccc4cccc(Cl)c24)O3)CC1` (single isomer, unassigned) [135 (Isomer A)], for which the IC50 was ≥ 3 µM. Take `C=CC(=O)N1CCN(c2nc(OC[C@@H]3CCCN3C)nc3c2OCC(c2cccc4cccc(Cl)c24)O3)CC1` (single isomer, unassigned) [135 (Isomer B)]: the IC50 is ≥ 3 µM. Under `C=C(F)C(=O)N1CCN(c2nc(OC[C@@H]3CCCN3C)nc3c2OCC(c2cccc4cccc(Cl)c24)O3)[C@@H](C)C1` (single isomer, unassigned) [136 (Isomer A)] stands ≥ 3 µM.

Consider `C=C(F)C(=O)N1CCN(c2nc(OC[C@@H]3CCCN3C)nc3c2OCC(c2cccc4cccc(Cl)c24)O3)[C@@H](C)C1` (single isomer, unassigned) [136 (Isomer B)], for which the IC50 was ≥ 3 µM.

Turning to `C=C(F)C(=O)N1CCN(c2nc(N3CC(N(CC)CC)C3)nc3c2COC(c2cccc4cccc(Cl)c24)C3)C[C@@H]1CC#N` (single isomer, unassigned) [229 (Isomer B)], the IC50 was ≥ 3 µM. As to `C=C(F)C(=O)N1CCN(c2nc(N3CCC(N(CC)CC)CC3)nc3c2COC(c2cccc4cccc(Cl)c24)C3)C[C@@H]1CC#N` (single isomer, unassigned) [230 (Isomer A)], the IC50 is ≥ 3 µM. Under `C=C(F)C(=O)N1CCN(c2nc(N3CCC(N(CC)CC)CC3)nc3c2COC(c2cccc4cccc(Cl)c24)C3)C[C@@H]1CC#N` (single isomer, unassigned) [230 (Isomer B)] stands 0.3 to 3 µM; under `C=C(F)C(=O)N1CCN(c2nc(NC3CCN(S(C)(=O)=O)CC3)nc3c2COC(c2cccc4cccc(Cl)c24)C3)C[C@@H]1CC#N` (single isomer, unassigned) [231 (Isomer A)], ≥ 3 µM. On to `C=C(F)C(=O)N1CCN(c2nc(NC3CCN(S(C)(=O)=O)CC3)nc3c2COC(c2cccc4cccc(Cl)c24)C3)C[C@@H]1CC#N` (single isomer, unassigned) [231 (Isomer B)], for which the IC50 is ≥ 3 µM. Under `C=C(F)C(=O)N1CCN(c2nc(NCCC(=O)N(C)C)nc3c2COC(c2cccc4cccc(Cl)c24)C3)C[C@@H]1CC#N` (single isomer, unassigned) [232 (Isomer A)] stands 0.3 to 3 µM. As to `C=C(F)C(=O)N1CCN(c2nc(NCCC(=O)N(C)C)nc3c2COC(c2cccc4cccc(Cl)c24)C3)C[C@@H]1CC#N` (single isomer, unassigned) [232 (Isomer B)], the IC50 is ≥ 3 µM. In the case of `C=C(F)C(=O)N1CCN(c2nc(Nc3cnn(C)c3)nc3c2COC(c2cccc4cccc(Cl)c24)C3)C[C@@H]1CC#N` (single isomer, unassigned) [233 (Isomer A)] it was ≥ 3 µM; in that of `C=C(F)C(=O)N1CCN(c2nc(Nc3cnn(C)c3)nc3c2COC(c2cccc4cccc(Cl)c24)C3)C[C@@H]1CC#N` (single isomer, unassigned) [233 (Isomer B)], ≥ 3 µM; in that of `C=C(F)C(=O)N1CCN(c2nc(OC3CCN(C)CC3)nc3c2COC(c2cccc4cccc(Cl)c24)C3)C[C@@H]1CC#N` (single isomer, unassigned) [234 (Isomer A)], ≥ 3 µM.

Compound `C=C(F)C(=O)N1CCN(c2nc(OC3CCN(C)CC3)nc3c2COC(c2cccc4cccc(Cl)c24)C3)C[C@@H]1CC#N` (single isomer, unassigned) [234 (Isomer B)] registered an IC50 of 0.3 to 3 µM. Take `C=C(F)C(=O)N1C[C@H](C)N(c2nc(OC[C@@H]3CCCN3C)nc3c2COC(c2cccc4cccc(Cl)c24)C3)C[C@H]1C` (single isomer, unassigned) [235 (Isomer A)]: the IC50 was ≥ 3 µM. In the case of `C=C(F)C(=O)N1C[C@H](C)N(c2nc(OC[C@@H]3CCCN3C)nc3c2COC(c2cccc4cccc(Cl)c24)C3)C[C@H]1C` (single isomer, unassigned) [235 (Isomer B)] it was ≥ 3 µM; in that of `C=C(F)C(=O)N1[C@H](C)CN(c2nc(OC[C@@H]3CCCN3C)nc3c2COC(c2cccc4cccc(Cl)c24)C3)C[C@@H]1C` (single isomer, unassigned) [237 (Isomer A)], ≥ 3 µM. In the case of `C=C(F)C(=O)N1[C@H](C)CN(c2nc(OC[C@@H]3CCCN3C)nc3c2COC(c2cccc4cccc(Cl)c24)C3)C[C@@H]1C` (single isomer, unassigned) [237 (Isomer B)] it was ≥ 3 µM. As to `C=C(F)C(=O)N1CCN(c2nc(OC[C@@H]3CCCN3C)nc3c2COC(c2cccc4cccc(Cl)c24)C3)CC1(C)C` (single isomer, unassigned) [238 (Isomer A)], the half-maximal inhibitory concentration (IC50) is ≥ 3 µM. In the case of `C=C(F)C(=O)N1CCN(c2nc(OC[C@@H]3CCCN3C)nc3c2COC(c2cccc4cccc(Cl)c24)C3)CC1(C)C` (single isomer, unassigned) [238 (Isomer B)] it was ≥ 3 µM; in that of `C=C(Cl)C(=O)N1CCN(c2nc(OC[C@@H]3CCCN3C)nc3c2COC(c2cccc4cccc(Cl)c24)C3)C[C@@H]1CC#N` (single isomer, unassigned) [239 (Isomer A)], ≥ 3 µM; in that of `C=C(C)C(=O)N1CCN(c2nc(OC[C@@H]3CCCN3C)nc3c2COC(c2cccc4cccc(Cl)c24)C3)C[C@@H]1CC#N` (single isomer, unassigned) [240 (Isomer A)], ≥ 3 µM. Under `C=C(C)C(=O)N1CCN(c2nc(OC[C@@H]3CCCN3C)nc3c2COC(c2cccc4cccc(Cl)c24)C3)C[C@@H]1CC#N` (single isomer, unassigned) [240 (Isomer B)] stands ≥ 3 µM. Under `C/C=C/C(=O)N1CCN(c2nc(OC[C@@H]3CCCN3C)nc3c2COC(c2cccc4cccc(Cl)c24)C3)C[C@@H]1CC#N` (single isomer, unassigned) [241 (Isomer B)] stands 0.3 to 3 µM; under `CN(C)C/C=C/C(=O)N1CCN(c2nc(OC[C@@H]3CCCN3C)nc3c2COC(c2cccc4cccc(Cl)c24)C3)C[C@@H]1CC#N` (single isomer, unassigned) [242 (Isomer A)], ≥ 3 µM; under `CN(C)C/C=C/C(=O)N1CCN(c2nc(OC[C@@H]3CCCN3C)nc3c2COC(c2cccc4cccc(Cl)c24)C3)C[C@@H]1CC#N` (single isomer, unassigned) [242 (Isomer B)], ≤ 0.3 µM. As for `CC#CC(=O)N1CCN(c2nc(OC[C@@H]3CCCN3C)nc3c2COC(c2cccc4cccc(Cl)c24)C3)C[C@@H]1CC#N` (single isomer, unassigned) [243 (Isomer A)], the IC50 was ≥ 3 µM. In the case of `C=C(F)C(=O)N1CCN(c2nc(Oc3cccc4c3CN(C)CC4)nc3c2COC(c2cccc4cccc(Cl)c24)C3)C[C@@H]1CC#N` (single isomer, unassigned) [249 (Isomer A)] it was 0.3 to 3 µM; in that of `C=C(F)C(=O)N1CCN(c2nc(Oc3cccc4c3CN(C)CC4)nc3c2COC(c2cccc4cccc(Cl)c24)C3)C[C@@H]1CC#N` (single isomer, unassigned) [249 (Isomer B)], ≥ 3 µM; in that of `C=C(F)C(=O)N1CCN(c2nc(Oc3cccc4c3CCN(C)C4)nc3c2COC(c2cccc4cccc(Cl)c24)C3)C[C@@H]1CC#N` (single isomer, unassigned) [250 (Isomer A)], 0.3 to 3 µM.

One may read the IC50 as the concentration at which inhibition is half-maximal.
